From PubChem BioAssay (NCI)
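GI50 marks 50% less growth. At the TGI there is no net growth.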

How the values were obtained:
Assay in all cases: NCI anticancer screen, dose series, 384-well format
[1] = test system: 786-0 renal
[2] = test system: A498 renal
[3] = test system: A549 NSCLC
[4] = test system: ACHN renal
[5] = test system: BT-549 breast
[6] = test system: CAKI-1 renal
[7] = test system: CCRF-CEM leukemia
[8] = test system: COLO 205 colon
[9] = test system: DU-145 prostate
[10] = test system: EKVX NSCLC
[11] = test system: HCC-2998 colon
[12] = test system: HCT-116 colon
[13] = test system: HCT-15 colon
[14] = test system: HL-60(TB) leukemia
[15] = test system: HOP-62 NSCLC
[16] = test system: HOP-92 NSCLC
[17] = test system: HS 578T breast
[18] = test system: HT29 colon
[19] = test system: IGROV1 ovarian
[20] = test system: K-562 leukemia
[21] = test system: KM12 colon
[22] = test system: LOX IMVI melanoma
[23] = test system: M14 melanoma
[24] = test system: MALME-3M melanoma
[25] = test system: MCF7 breast
[26] = test system: MDA-MB-231 breast
[27] = test system: MDA-MB-435 melanoma
[28] = test system: MDA-MB-468 breast
[29] = test system: MOLT-4 leukemia
[30] = test system: NCI-H226 lung
[31] = test system: NCI-H23 lung
[32] = test system: NCI-H322M lung
[33] = test system: NCI-H460 NSCLC
[34] = test system: NCI-H522 lung
[35] = test system: NCI/ADR-RES ovarian
[36] = test system: OVCAR-3 ovarian
[37] = test system: OVCAR-4 ovarian
[38] = test system: OVCAR-5 ovarian
[39] = test system: OVCAR-8 ovarian
[40] = test system: PC-3 prostate
[41] = test system: RPMI-8226 leukemia
[42] = test system: RXF 393 renal
[43] = test system: SF-268 CNS
[44] = test system: SF-295 CNS
[45] = test system: SF-539 CNS
[46] = test system: SK-MEL-2 melanoma
[47] = test system: SK-MEL-28 melanoma
[48] = test system: SK-MEL-5 melanoma
[49] = test system: SK-OV-3 ovarian
[50] = test system: SN12C renal
[51] = test system: SNB-19 CNS
[52] = test system: SNB-75 CNS
[53] = test system: SW-620 colon
[54] = test system: T-47D breast
[55] = test system: TK-10 renal
[56] = test system: U251 glioblastoma
[57] = test system: UACC-257 melanoma
[58] = test system: UACC-62 melanoma
[59] = test system: UO-31 renal

## Cc1c(NC(=O)c2cc(C(N)=O)nc3cc(F)ccc23)c(C(F)(F)F)nn1Cc1ccc(C#N)cc1
[1]
  GI50: 0.319 µM
  TGI: 12.3 µM
[2]
  GI50: 0.742 µM
  TGI: 15.4 µM
[3]
  GI50: 2 µM
  TGI: 15.6 µM
[4]
  GI50: 2.54 µM
  TGI: 27.1 µM
[5]
  GI50: 0.605 µM
  TGI: 12.1 µM
[6]
  GI50: 8.33 µM
  TGI: 37.4 µM
[7]
  GI50: 0.0337 µM
  TGI: 10.3 µM
[8]
  GI50: 0.102 µM
  TGI: 1.33 µM
[9]
  GI50: 0.0752 µM
  TGI: 2.43 µM
[10]
  GI50: 16.1 µM
  TGI: 66.3 µM
[11]
  GI50: 0.0956 µM
  TGI: 1.69 µM
[12]
  GI50: 1.97 µM
  TGI: 12.2 µM
[13]
  GI50: 14.1 µM
  TGI: > 100 µM
[14]
  GI50: 1.06 µM
  TGI: 2.38 µM
[15]
  GI50: 3.3 µM
  TGI: 16.5 µM
[16]
  GI50: 0.633 µM
  TGI: 7.03 µM
[17]
  GI50: 0.022 µM
  TGI: 0.123 µM
[18]
  GI50: 0.134 µM
  TGI: 1.31 µM
[19]
  GI50: 1.69 µM
  TGI: 8.2 µM
[20]
  GI50: 5.92 µM
  TGI: 22.3 µM
[21]
  GI50: 0.142 µM
  TGI: 1.9 µM
[22]
  GI50: 1.67 µM
  TGI: 12.8 µM
[23]
  GI50: 11.1 µM
  TGI: 24.9 µM
[24]
  GI50: 2.94 µM
  TGI: 16.4 µM
[25]
  GI50: 0.198 µM
  TGI: 1.22 µM
[26]
  GI50: 5.69 µM
  TGI: 41.6 µM
[27]
  GI50: 17.1 µM
  TGI: > 100 µM
[28]
  GI50: 2.66 µM
  TGI: 13.4 µM
[29]
  GI50: 0.11 µM
  TGI: 2.02 µM
[30]
  GI50: 0.0842 µM
  TGI: 8.1 µM
[31]
  GI50: 2.93 µM
  TGI: 16.5 µM
[32]
  GI50: 1.71 µM
  TGI: 12.9 µM
[33]
  GI50: 2.87 µM
  TGI: 16.3 µM
[34]
  GI50: 4.54 µM
  TGI: 27.8 µM
[35]
  GI50: 1.35 µM
  TGI: 2.87 µM
[36]
  GI50: 0.0509 µM
  TGI: 1.19 µM
[37]
  GI50: 0.0803 µM
  TGI: 1.7 µM
[38]
  GI50: 2.81 µM
  TGI: 9.74 µM
[39]
  GI50: 1.62 µM
  TGI: 5.83 µM
[40]
  GI50: 0.0532 µM
  TGI: 0.276 µM
[41]
  TGI: 0.163 µM
[42]
  GI50: 0.693 µM
  TGI: 5.32 µM
[43]
  GI50: 6.04 µM
  TGI: 28.2 µM
[44]
  GI50: 1.07 µM
  TGI: 5.5 µM
[45]
  GI50: 5.05 µM
  TGI: 27.2 µM
[46]
  GI50: 17.4 µM
  TGI: 35.5 µM
[47]
  GI50: 18.3 µM
  TGI: > 100 µM
[48]
  GI50: 12.3 µM
  TGI: 54.8 µM
[49]
  GI50: 0.132 µM
  TGI: 0.313 µM
[50]
  GI50: 0.237 µM
  TGI: 12.1 µM
[51]
  GI50: 1.81 µM
  TGI: 12.3 µM
[52]
  GI50: 12.2 µM
  TGI: 27 µM
[53]
  GI50: 4.76 µM
  TGI: 33.9 µM
[54]
  GI50: 0.151 µM
  TGI: 11.5 µM
[55]
  GI50: 1.37 µM
  TGI: 5.06 µM
[56]
  GI50: 0.974 µM
  TGI: 12.9 µM
[57]
  GI50: 33.4 µM
  TGI: > 100 µM
[58]
  GI50: 2.78 µM
  TGI: 15.4 µM
[59]
  GI50: 0.208 µM
  TGI: 9.83 µM
